Measured values reported in patent publication US9340590B2 (priority 2011, dated 2016).
Where two headings read alike, the source gives them in different places. Positions of bridges follow the written chain, without caps; N, C: chain ends. Non-standard residues stand in square brackets, D forms with d. Residues, ends and D or L forms follow the SMILES beside them. Phe(4-CF3) = N[C@@H](Cc1ccc(C(F)(F)F)cc1)C(=O)O; Phe(4-COOH) = N[C@@H](Cc1ccc(C(=O)O)cc1)C(=O)O; 2Pal = N[C@@H](Cc1ccccn1)C(=O)O

What was measured:
Test in all cases: cell-based
hNav1.5 = hNav1.5 (Homo sapiens, UniProt Q14524); settings: IonWorks Quattro, read-out: IWQ Use Nav1.5
hNav1.7 = hNav1.7 (Homo sapiens, UniProt Q15858); assay type: cell-based; settings: IonWorks Quattro, read-out: IWQ Use Nav1.7
hNav1.3 = hNav1.3 (Homo sapiens, UniProt Q9NY46); settings: IonWorks Quattro, read-out: IWQ Use Nav1.3
[1] = use-dependent protocol, hNav1.5
[2] = use-dependent protocol, hNav1.7
[3] = use-dependent protocol, hNav1.3

hNav1.5, sequence (Q14524 whole entry, looked up): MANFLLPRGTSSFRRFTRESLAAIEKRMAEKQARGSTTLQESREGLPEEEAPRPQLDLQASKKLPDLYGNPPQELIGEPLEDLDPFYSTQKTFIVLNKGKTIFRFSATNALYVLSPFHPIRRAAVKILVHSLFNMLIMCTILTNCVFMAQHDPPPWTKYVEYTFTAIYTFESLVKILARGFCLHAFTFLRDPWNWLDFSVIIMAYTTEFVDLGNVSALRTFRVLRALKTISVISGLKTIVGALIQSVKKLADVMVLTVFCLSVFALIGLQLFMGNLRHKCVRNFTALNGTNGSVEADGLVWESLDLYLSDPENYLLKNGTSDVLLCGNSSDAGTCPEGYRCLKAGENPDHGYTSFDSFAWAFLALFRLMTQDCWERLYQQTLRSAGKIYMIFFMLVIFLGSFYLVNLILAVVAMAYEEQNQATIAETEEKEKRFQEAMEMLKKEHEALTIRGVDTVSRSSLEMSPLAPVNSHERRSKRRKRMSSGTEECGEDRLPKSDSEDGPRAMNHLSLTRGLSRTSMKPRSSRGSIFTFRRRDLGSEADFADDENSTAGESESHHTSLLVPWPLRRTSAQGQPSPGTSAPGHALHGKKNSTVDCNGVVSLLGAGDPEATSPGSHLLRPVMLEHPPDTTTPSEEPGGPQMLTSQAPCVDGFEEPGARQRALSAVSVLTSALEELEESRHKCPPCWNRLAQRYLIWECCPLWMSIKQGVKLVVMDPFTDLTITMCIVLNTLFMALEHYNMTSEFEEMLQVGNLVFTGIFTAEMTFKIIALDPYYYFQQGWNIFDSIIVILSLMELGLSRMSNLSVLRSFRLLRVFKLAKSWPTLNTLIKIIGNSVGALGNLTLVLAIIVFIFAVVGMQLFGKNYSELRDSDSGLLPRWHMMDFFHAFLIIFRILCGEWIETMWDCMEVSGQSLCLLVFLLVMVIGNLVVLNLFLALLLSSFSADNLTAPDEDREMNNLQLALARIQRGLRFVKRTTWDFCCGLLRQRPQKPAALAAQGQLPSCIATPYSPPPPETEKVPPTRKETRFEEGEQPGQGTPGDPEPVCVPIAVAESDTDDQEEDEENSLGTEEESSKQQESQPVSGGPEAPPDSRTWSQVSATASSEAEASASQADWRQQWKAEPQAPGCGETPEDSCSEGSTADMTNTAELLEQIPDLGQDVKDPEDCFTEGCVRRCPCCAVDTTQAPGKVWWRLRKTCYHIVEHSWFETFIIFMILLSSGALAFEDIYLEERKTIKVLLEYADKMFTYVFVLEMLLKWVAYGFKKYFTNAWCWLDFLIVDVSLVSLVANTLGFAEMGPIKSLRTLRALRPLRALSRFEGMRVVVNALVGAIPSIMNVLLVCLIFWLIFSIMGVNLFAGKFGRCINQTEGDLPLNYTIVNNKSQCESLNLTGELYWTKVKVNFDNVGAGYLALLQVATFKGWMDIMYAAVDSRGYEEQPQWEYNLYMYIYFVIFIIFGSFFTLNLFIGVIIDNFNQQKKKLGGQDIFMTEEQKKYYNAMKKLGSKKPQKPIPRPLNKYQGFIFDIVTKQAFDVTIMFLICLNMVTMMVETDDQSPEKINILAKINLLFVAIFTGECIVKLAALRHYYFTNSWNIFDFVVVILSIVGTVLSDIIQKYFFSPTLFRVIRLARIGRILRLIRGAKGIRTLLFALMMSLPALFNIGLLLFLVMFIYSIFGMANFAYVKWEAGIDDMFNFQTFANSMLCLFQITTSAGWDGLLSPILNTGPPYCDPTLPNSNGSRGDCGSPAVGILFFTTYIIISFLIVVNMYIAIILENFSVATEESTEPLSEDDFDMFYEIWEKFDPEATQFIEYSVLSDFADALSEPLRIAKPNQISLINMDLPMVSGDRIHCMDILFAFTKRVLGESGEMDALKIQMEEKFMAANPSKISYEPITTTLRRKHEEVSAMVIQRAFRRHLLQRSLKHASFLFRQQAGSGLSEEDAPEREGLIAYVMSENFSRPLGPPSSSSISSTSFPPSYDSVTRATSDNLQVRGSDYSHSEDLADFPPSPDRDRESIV
hNav1.3, sequence (Q9NY46 whole entry, looked up): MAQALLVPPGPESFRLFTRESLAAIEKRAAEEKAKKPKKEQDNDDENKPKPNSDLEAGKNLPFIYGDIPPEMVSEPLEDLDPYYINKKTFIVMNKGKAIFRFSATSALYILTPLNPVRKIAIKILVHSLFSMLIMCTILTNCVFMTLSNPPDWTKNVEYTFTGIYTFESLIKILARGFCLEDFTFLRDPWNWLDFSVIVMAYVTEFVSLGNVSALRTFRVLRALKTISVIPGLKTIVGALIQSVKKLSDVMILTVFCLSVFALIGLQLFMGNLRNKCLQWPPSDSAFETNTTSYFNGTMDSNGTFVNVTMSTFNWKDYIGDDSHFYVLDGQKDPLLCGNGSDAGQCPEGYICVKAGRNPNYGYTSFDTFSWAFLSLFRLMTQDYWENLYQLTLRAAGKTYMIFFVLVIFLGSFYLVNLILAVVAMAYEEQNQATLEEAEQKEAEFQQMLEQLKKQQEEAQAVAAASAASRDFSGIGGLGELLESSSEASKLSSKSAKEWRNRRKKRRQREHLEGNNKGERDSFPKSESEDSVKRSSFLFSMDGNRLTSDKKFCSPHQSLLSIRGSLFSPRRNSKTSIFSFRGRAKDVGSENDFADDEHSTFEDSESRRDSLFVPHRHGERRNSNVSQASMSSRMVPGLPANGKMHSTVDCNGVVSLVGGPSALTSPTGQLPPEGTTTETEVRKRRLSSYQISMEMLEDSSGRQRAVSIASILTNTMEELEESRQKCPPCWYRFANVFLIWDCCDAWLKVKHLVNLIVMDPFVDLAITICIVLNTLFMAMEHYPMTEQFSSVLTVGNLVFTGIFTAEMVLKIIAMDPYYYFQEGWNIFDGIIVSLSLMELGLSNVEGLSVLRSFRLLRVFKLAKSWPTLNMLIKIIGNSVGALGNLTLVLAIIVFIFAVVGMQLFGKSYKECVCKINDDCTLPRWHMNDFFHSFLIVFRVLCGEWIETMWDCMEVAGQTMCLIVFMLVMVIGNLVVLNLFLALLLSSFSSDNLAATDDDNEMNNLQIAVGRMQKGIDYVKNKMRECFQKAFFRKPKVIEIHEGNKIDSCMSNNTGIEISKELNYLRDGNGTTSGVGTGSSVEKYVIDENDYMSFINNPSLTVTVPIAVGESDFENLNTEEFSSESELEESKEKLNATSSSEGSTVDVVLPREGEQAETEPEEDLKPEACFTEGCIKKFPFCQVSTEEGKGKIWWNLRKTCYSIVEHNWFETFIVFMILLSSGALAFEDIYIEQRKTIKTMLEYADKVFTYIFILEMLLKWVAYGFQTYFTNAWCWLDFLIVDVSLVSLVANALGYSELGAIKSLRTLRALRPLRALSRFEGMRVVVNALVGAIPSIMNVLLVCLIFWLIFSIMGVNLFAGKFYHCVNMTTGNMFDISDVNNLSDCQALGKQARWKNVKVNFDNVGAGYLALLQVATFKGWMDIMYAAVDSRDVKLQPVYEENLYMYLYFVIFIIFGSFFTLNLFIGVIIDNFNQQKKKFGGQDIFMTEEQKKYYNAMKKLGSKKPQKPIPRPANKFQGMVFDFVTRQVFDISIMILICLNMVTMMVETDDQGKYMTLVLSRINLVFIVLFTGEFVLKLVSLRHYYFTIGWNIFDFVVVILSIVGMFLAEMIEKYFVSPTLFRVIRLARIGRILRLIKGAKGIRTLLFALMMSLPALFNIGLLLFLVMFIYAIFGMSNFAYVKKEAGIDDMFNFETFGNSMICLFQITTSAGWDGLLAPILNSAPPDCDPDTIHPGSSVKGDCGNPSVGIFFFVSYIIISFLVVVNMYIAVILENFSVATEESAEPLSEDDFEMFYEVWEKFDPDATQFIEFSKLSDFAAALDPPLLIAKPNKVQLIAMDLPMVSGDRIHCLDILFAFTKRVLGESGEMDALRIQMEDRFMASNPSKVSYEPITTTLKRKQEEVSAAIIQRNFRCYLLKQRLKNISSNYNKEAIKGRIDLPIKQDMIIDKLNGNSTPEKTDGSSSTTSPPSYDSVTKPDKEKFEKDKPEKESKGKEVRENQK

With `CC[C@H](C)[C@@H]1NC(=O)[C@@H]2CSSC[C@@H]3NC(=O)[C@H](C(C)C)NC(=O)[C@H](CC(C)C)NC(=O)[C@H](CC(N)=O)NC(=O)[C@@H]4CCCN4C(=O)[C@H](CCCNC(=N)N)NC(=O)[C@H](CSSC[C@H](NC(=O)[C@@H](N)CC(=O)O)C(=O)N[C@@H](CC(C)C)C(=O)NCC(=O)N[C@@H](C)C(=O)N[C@@H](CC(C)C)C(=O)N[C@@H](CCCNC(=N)N)C(=O)N[C@@H](CCCCN)C(=O)N2)NC(=O)[C@H](CSSC[C@@H](C(=O)N[C@@H](CCCCN)C(=O)N[C@@H](Cc2ccc(O)cc2)C(=O)N[C@H](C(=O)N[C@@H](Cc2ccccc2)C(=O)O)C(C)C)NC(=O)[C@H](Cc2c[nH]c4ccccc24)NC(=O)[C@H](CCCNC(=N)N)NC(=O)[C@H](Cc2c[nH]cn2)NC(=O)[C@H]([C@@H](C)O)NC(=O)[C@H](CCCNC(=N)N)NC(=O)[C@H](CO)NC3=O)NC(=O)[C@H](CCCCN)NC(=O)[C@H](CC(=O)O)NC(=O)[C@H](CO)NC(=O)[C@H](CC(=O)O)NC(=O)[C@@H]2CCCN2C1=O` [compound 871] (H-DCLGALRKCIPDSDKCCRPNLVCSRTHRWCKYVF-OH; disulfide 2-17, 9-23, 16-30) the IC50 (hNav1.5; use-dependent block, hNav1.5) was over 5 µM, the IC50 (hNav1.7; use-dependent block, hNav1.7) was over 5 µM and the IC50 (hNav1.3; use-dependent block, hNav1.3) was over 5 µM.

In the case of `CSCC[C@@H]1NC(=O)[C@H](Cc2ccccc2)NC(=O)CNC(=O)[C@H](CC(C)C)NC(=O)[C@@H](NC(=O)[C@@H](N)CC(=O)O)CSSC[C@@H]2NC(=O)[C@@H]3CSSC[C@@H](C(=O)N[C@@H](CCCCN)C(=O)N[C@@H](Cc4ccc(O)cc4)C(=O)N[C@H](C(=O)N[C@@H](Cc4ccccc4)C(N)=O)C(C)C)NC(=O)[C@H](Cc4c[nH]c5ccccc45)NC(=O)[C@H](CCCCN)NC(=O)[C@H](Cc4c[nH]cn4)NC(=O)[C@H]([C@@H](C)O)NC(=O)[C@H](CCCNC(=N)N)NC(=O)[C@H](CO)NC(=O)[C@H](CSSC[C@H](NC(=O)[C@H](CCCCN)NC(=O)[C@H](CCCNC(=N)N)NC1=O)C(=O)N[C@@H](Cc1c[nH]c4ccccc14)C(=O)N1CCC[C@H]1C(=O)N[C@@H](CC(=O)O)C(=O)N[C@@H](CC(N)=O)C(=O)N[C@@H](CC(=O)O)C(=O)N[C@@H](CCCCN)C(=O)N3)NC(=O)[C@H](C(C)C)NC(=O)[C@H](CC(C)C)NC(=O)[C@H](CC(N)=O)NC(=O)[C@@H]1CCCN1C(=O)[C@H](CCCNC(=N)N)NC2=O` [compound 83] (H-DCLGFMRKCWPDNDKCCRPNLVCSRTHKWCKYVF-NH2; disulfide 2-17, 9-23, 16-30), the IC50 (hNav1.5; Use) is reported as 8.02 µM, the IC50 (hNav1.7; Use) is reported as 0.1 µM and the IC50 (hNav1.3; Use) is reported as 0.19 µM.

Compound `CC[C@H](C)[C@@H]1NC(=O)[C@@H]2CSSC[C@@H]3NC(=O)[C@H](C(C)C)NC(=O)[C@H](CC(C)C)NC(=O)[C@H](CC(N)=O)NC(=O)[C@@H]4CCCN4C(=O)[C@H](CCCNC(=N)N)NC(=O)[C@H](CSSC[C@H](NC(=O)[C@@H](N)CC(=O)O)C(=O)N[C@@H](CC(C)C)C(=O)NCC(=O)N[C@@H](Cc4ccccc4)C(=O)N[C@@H](CCSC)C(=O)N[C@@H](CCCNC(=N)N)C(=O)N[C@@H](CCCCN)C(=O)N2)NC(=O)[C@H](CSSC[C@@H](C(=O)N[C@@H](CCCCN)C(=O)N[C@@H](Cc2ccc(O)cc2)C(=O)N[C@H](C(=O)N[C@@H](Cc2ccccc2)C(N)=O)C(C)C)NC(=O)[C@H](Cc2c[nH]c4ccccc24)NC(=O)[C@H](CCCCN)NC(=O)[C@H](Cc2ccccc2)NC(=O)[C@H]([C@@H](C)O)NC(=O)[C@H](CCCNC(=N)N)NC(=O)[C@H](CO)NC3=O)NC(=O)[C@H](CCCCN)NC(=O)[C@H](CC(=O)O)NC(=O)[C@H](CC(N)=O)NC(=O)[C@H](CC(=O)O)NC(=O)[C@@H]2CCCN2C1=O` [compound 109] (H-DCLGFMRKCIPDNDKCCRPNLVCSRTFKWCKYVF-NH2; disulfide 2-17, 9-23, 16-30) has an IC50 (hNav1.5; Table 23, use, […]) of 2.06 µM, an IC50 (hNav1.7; Table 23, use, […]) of 0.22 µM and an IC50 (hNav1.3; Table 23, use, […]) of 0.53 µM.

`CC[C@H](C)[C@@H]1NC(=O)[C@@H]2CSSC[C@@H]3NC(=O)[C@H](Cc4ccccn4)NC(=O)[C@H](CC(C)C)NC(=O)[C@H](CC(N)=O)NC(=O)[C@@H]4CCCN4C(=O)[C@H](CCCNC(=N)N)NC(=O)[C@H](CSSC[C@H](NC(=O)[C@@H](N)CC(=O)O)C(=O)N[C@@H](CC(C)C)C(=O)NCC(=O)N[C@@H](Cc4ccccc4)C(=O)N[C@@H](CCSC)C(=O)N[C@@H](CCCNC(=N)N)C(=O)N[C@@H](CCCCN)C(=O)N2)NC(=O)[C@H](CSSC[C@@H](C(=O)N[C@@H](CCCCN)C(=O)N[C@@H](Cc2ccc(O)cc2)C(=O)N[C@H](C(=O)N[C@@H](Cc2ccccc2)C(N)=O)C(C)C)NC(=O)[C@H](Cc2c[nH]c4ccccc24)NC(=O)[C@H](CCCCN)NC(=O)[C@H](Cc2c[nH]cn2)NC(=O)[C@H]([C@@H](C)O)NC(=O)[C@H](CCCNC(=N)N)NC(=O)[C@H](CO)NC3=O)NC(=O)[C@H](CCCCN)NC(=O)[C@H](CC(=O)O)NC(=O)[C@H](CC(N)=O)NC(=O)[C@H](CC(=O)O)NC(=O)[C@@H]2CCCN2C1=O` [compound 334] (H-DCLGFMRKCIPDNDKCCRPNL[2Pal]CSRTHKWCKYVF-NH2; disulfide 2-17, 9-23, 16-30) showed an IC50 (hNav1.5; Use) of 11 µM, an IC50 (hNav1.7; Use) of 0.33 µM and an IC50 (hNav1.3; Use) of 0.14 µM.

For `CC[C@H](C)[C@@H]1NC(=O)[C@@H]2CSSC[C@@H]3NC(=O)[C@H](C(C)C)NC(=O)[C@H](CC(C)C)NC(=O)[C@H](CC(N)=O)NC(=O)[C@@H]4CCCN4C(=O)[C@H](CCCNC(=N)N)NC(=O)[C@H](CSSC[C@H](NC(=O)[C@@H](N)CC(=O)O)C(=O)N[C@@H](CC(C)C)C(=O)NCC(=O)NCCC(=O)N[C@@H](CC(C)C)C(=O)N[C@@H](CCCNC(=N)N)C(=O)N[C@@H](CCCCN)C(=O)N2)NC(=O)[C@H](CSSC[C@@H](C(=O)N[C@@H](CCCCN)C(=O)N[C@@H](Cc2ccc(O)cc2)C(=O)N[C@H](C(=O)N[C@@H](Cc2ccccc2)C(N)=O)C(C)C)NC(=O)[C@H](Cc2c[nH]c4ccccc24)NC(=O)[C@H](CCCCN)NC(=O)[C@H](Cc2c[nH]cn2)NC(=O)[C@H]([C@@H](C)O)NC(=O)[C@H](CCCNC(=N)N)NC(=O)[C@H](CO)NC3=O)NC(=O)[C@H](CCCCN)NC(=O)[C@H](CC(=O)O)NC(=O)[C@H](CC(N)=O)NC(=O)[C@H](CC(=O)O)NC(=O)[C@@H]2CCCN2C1=O` [compound 634], the IC50 (hNav1.5; [1]) was 14.1 µM, the IC50 (hNav1.7; [2]) was 9.3 µM and the IC50 (hNav1.3; [3]) was 18.1 µM.

For `CC[C@H](C)[C@@H]1NC(=O)[C@@H]2CSSC[C@@H]3NC(=O)[C@H](Cc4ccc(C(=O)O)cc4)NC(=O)[C@H](CC(C)C)NC(=O)[C@H](CC(N)=O)NC(=O)[C@@H]4CCCN4C(=O)[C@H](CCCNC(=N)N)NC(=O)[C@H](CSSC[C@H](NC(=O)[C@@H](N)CC(=O)O)C(=O)N[C@@H](CC(C)C)C(=O)NCC(=O)N[C@@H](Cc4ccccc4)C(=O)N[C@@H](CCSC)C(=O)N[C@@H](CCCNC(=N)N)C(=O)N[C@@H](CCCCN)C(=O)N2)NC(=O)[C@H](CSSC[C@@H](C(=O)N[C@@H](CCCCN)C(=O)N[C@@H](Cc2ccc(O)cc2)C(=O)N[C@H](C(=O)N[C@@H](Cc2ccccc2)C(N)=O)C(C)C)NC(=O)[C@H](Cc2c[nH]c4ccccc24)NC(=O)[C@H](CCCCN)NC(=O)[C@H](Cc2c[nH]cn2)NC(=O)[C@H]([C@@H](C)O)NC(=O)[C@H](CCCNC(=N)N)NC(=O)[C@H](CO)NC3=O)NC(=O)[C@H](CCCCN)NC(=O)[C@H](CC(=O)O)NC(=O)[C@H](CC(N)=O)NC(=O)[C@H](CC(=O)O)NC(=O)[C@@H]2CCCN2C1=O` [compound 333] (H-DCLGFMRKCIPDNDKCCRPNL[Phe(4-COOH)]CSRTHKWCKYVF-NH2; disulfide 2-17, 9-23, 16-30), the IC50 (hNav1.5; Use) was 7.5 µM, the IC50 (hNav1.7; Use) was 5.77 µM and the IC50 (hNav1.3; Use) was 4.47 µM.

Compound `CC[C@H](C)[C@@H]1NC(=O)[C@@H]2CSSC[C@@H]3NC(=O)[C@H](C(C)C)NC(=O)[C@H](CC(C)C)NC(=O)[C@H](CC(N)=O)NC(=O)[C@@H]4CCCN4C(=O)[C@H](CCCNC(=N)N)NC(=O)[C@H](CSSC[C@H](NC(=O)[C@@H](N)CC(=O)O)C(=O)N[C@@H](CC(C)C)C(=O)NCC(=O)N[C@@H](Cc4ccc(C(F)(F)F)cc4)C(=O)N[C@@H](Cc4ccccc4)C(=O)N[C@@H](CCCNC(=N)N)C(=O)N[C@@H](CCCCN)C(=O)N2)NC(=O)[C@H](CSSC[C@@H](C(=O)N[C@@H](CCCCN)C(=O)N[C@@H](Cc2ccc(O)cc2)C(=O)N[C@H](C(=O)N[C@@H](Cc2ccccc2)C(N)=O)C(C)C)NC(=O)[C@H](Cc2c[nH]c4ccccc24)NC(=O)[C@H](CCCCN)NC(=O)[C@H](Cc2c[nH]cn2)NC(=O)[C@H]([C@@H](C)O)NC(=O)[C@H](CCCNC(=N)N)NC(=O)[C@H](CO)NC3=O)NC(=O)[C@H](CCCCN)NC(=O)[C@H](CC(=O)O)NC(=O)[C@H](CC(N)=O)NC(=O)[C@H](CC(=O)O)NC(=O)[C@@H]2CCCN2C1=O` [compound 623] (H-DCLG[Phe(4-CF3)]FRKCIPDNDKCCRPNLVCSRTHKWCKYVF-NH2; disulfide 2-17, 9-23, 16-30) has an IC50 (hNav1.5; [1]) of 7.1 µM, an IC50 (hNav1.7; [2]) of 0.096 µM and an IC50 (hNav1.3; [3]) of 0.013 µM.
